Measured values as given in US20080292673A1, “Bioactive agrichemical compositions and use therreof” (priority 2007, published 2008).
Read-outs that look alike come from different tables or passages of the source.

Legend:
[1] = tested on: Saccharomycetes Cerevisiae (Fleishmann's Bakers yeast); experiment: Saccharomycetes Cerevisiae yeast growth suppression, turbidity of broth suspension; assay type: cell-based; conditions: for T18 − T0 (change in turbidity) / T48 − T0 (change in turbidity) / T72 − T0 (change in turbidity) / T96 − T0 (change in turbidity) / T18 (turbidity of yeast suspension) / T48 (turbidity of yeast suspension) / T72 (turbidity of yeast suspension) / T96 (turbidity of yeast suspension) / T0 (turbidity of yeast suspension): surfactant ~0.05 wt %; for T0 (turbidity of yeast suspension): time 0; for Turbidity (NTU) OD (To) / Turbidity (NTU) OD (T1 hr) / Turbidity (NTU) OD (T18) / Turbidity (NTU) OD (T24) / Turbidity (NTU) OD (T48): Table 3; for Turbidity (NTU) OD (To): 1 ml solutions added; for Turbidity (NTU) OD (T1 hr): 1 hour; for Turbidity (NTU) OD (T48): 48 hours; for Change in Turbidity from T0 (delta NTU) OD (T1 hr) / Change in Turbidity from T0 (delta NTU) OD (T18) / Change in Turbidity from T0 (delta NTU) OD (T24) / Change in Turbidity from T0 (delta NTU) OD (T48): Table 3A; for Change in Turbidity from T0 (delta NTU) OD (T48): 48 hours minus time zero
Protocol: Saccharomycetes Cerevisiae was selected as a test organism as it is generally accepted in the industry as an indicator or surrogate organism for a wide variety of fungi. In each of these experiments, the same general procedure was followed unless otherwise indicated.
Experimental Detail: A growth medium was prepared by adding 10 grams of nutrient medium (Difco Sabouraud dextrose broth from BD of Franklin Lakes, N.J., USA) to 300 ml of distilled water. Fleishmann's Bakers yeast was then added to the growth medium while mixing using a magnetic stirrer until a uniform dispersion was obtained having an initial turbidity of between about 50 and 100 NTU as measured using a HF Instruments DRT 100B Turbidity Meter. Once the appropriate dispersion was obtained, 20 ml aliquots were then dispensed, with continued mixing, into 40 ml borosilicate glass vials with Teflon lined caps (VWR International Cat. No. 15900-004). The system/component to be evaluated was then added to the vial and intimately shaken to ensure a good, substantially homogeneous mixture. The turbidity of each mixture was then determined and the vial transferred to an incubator at 30° C. Each vial was periodically removed from the incubator and the mixture in the vials assessed for turbidity: the specific timing for such evaluation was as set forth in the discussion of the experiments and the accompanying tables.
In each experiment, unless otherwise specified, a 2 ml aqueous solution containing the specified bioactive system or component thereof was added to the 20 ml yeast suspension and mixed thoroughly. Typically the surfactants were added separately in a concentrated solution in water; however, the volume added was negligible: a fraction of an ml. For convenience in understanding efficacy levels, the amounts or concentrations of the various components presented in each of the following tables and experiments are of the diluted material in the test vial: not of the concentrate added to the test vial. Furthermore, the concentrations presented are on the basis of a 20 ml total volume, not the actual 22+ ml volume. Multiplying each of the listed concentrations by 0.9 (or 0.95 with those compositions using 1 ml aqueous solutions) will provide a more accurate assessment of the concentrations of the various components evaluated, i.e., a 5 ppm silver concentration is actually closer to 4.5 ppm. Finally, for those vials to which no bioactive system or component thereof was added (the controls) or which only contained the surfactants, 2 ml of additional growth medium was added to ensure relative equivalent dilutions of the yeast.
In the tables below, the results are presented as the actual turbidity readings (NTU) with a sub-table presenting the change or delta in NTU values. Given the nature of the system, changes in turbidity are reflective of the relative performance/bioefficacy of the bioactive systems and their components.

E. amylovora 153N = experiment: Fire blight on crabapples (Example 287); assay type: in vivo, Snow Drift crabapple trees; conditions: for shoot blight incidence, in words: evaluated on day 63; for canker, in words: length of cankers evaluated on day 63
Protocol: A study of the bioefficacy of the various agrichemical compositions, including bioactive acid solutions and blends thereof with an antibiotic agrichemical, were evaluated to assess their bioefficacy against fire blight on crabapples. The study was conducted on 5 year old Snow Drift crabapple trees, with each of the compositions being applied to ten trees in two-subplots of five trees, four different times: at 100% bloom-day 1, a second application was made on day 4, a third on day 11 and a final treatment on day 19. The trees were inoculated with E. amylovora […] at a concentration of 4×10^6 cells per milliliter on day 1, following drying of the treatment, with the inoculation being repeated on day 13. Evaluation for fire blight was completed on 100 blossoms for each of the subplots on day 12, day 19 and day 27. Additionally, the incidence of shoot infection and the length of […] evaluated on day 63. The test compositions were prepared by forming solutions of the bioactive agents. Two different dilutions of the MI2 bioactive were evaluated; the first employing 94.46 ml/gallon (25 ml/l) of water (5 ppm of each metal) and the second 188.9 ml/gallon (50 ml/l) of water (10 ppm of each metal). […] Finally, copper hydroxide was diluted at a rate of 1 lb/gallon (119.8 g/l). Each of the compositions and blends were spray applied at a rate of 50 gallons (189.3 l) pre acre. The results are presented as the mean of the counts.

[2] = Metal ppm 2.5, about 0.2% citric acid
[3] = Metal ppm 2.5 each of copper, silver, zinc, about 0.2% citric acid
[4] = Metal ppm 5, approximately 0.4% citric acid
[5] = Metal ppm 5 each of copper, silver, zinc, approximately 0.4% citric acid
[6] = 1 hour minus time zero, sulfate
[7] = 18 hours minus time zero, sulfate
[8] = 24 hours minus time zero, sulfate

Molecule: CCCCCCCCCCCCOS(=O)(=O)[O-].[Na+]
- T18 − T0 (change in turbidity) ([1]; neat, Metal ppm 0): 447
- T48 − T0 (change in turbidity) ([1]; neat, Metal ppm 0): 610
- T72 − T0 (change in turbidity) ([1]; neat, Metal ppm 0): 594
- T96 − T0 (change in turbidity) ([1]; neat, Metal ppm 0): 591
- T18 (turbidity of yeast suspension) ([1]; neat, Metal ppm 0): 495
- T48 (turbidity of yeast suspension) ([1]; neat, Metal ppm 0): 658
- T72 (turbidity of yeast suspension) ([1]; neat, Metal ppm 0): 642
- T96 (turbidity of yeast suspension) ([1]; neat, Metal ppm 0): 639
- T0 (turbidity of yeast suspension) ([1]; neat, Metal ppm 0): 48
- T18 − T0 (change in turbidity) [1, 2]: 2
- T48 − T0 (change in turbidity) [1, 2]: 0
- T72 − T0 (change in turbidity) [1, 2]: 0
- T96 − T0 (change in turbidity) [1, 2]: −1
- T18 (turbidity of yeast suspension) [1, 3]: 90
- T48 (turbidity of yeast suspension) [1, 3]: 88
- T72 (turbidity of yeast suspension) [1, 3]: 88
- T96 (turbidity of yeast suspension) [1, 3]: 87
- T0 (turbidity of yeast suspension) [1, 3]: 88
- T18 − T0 (change in turbidity) [1, 4]: 13
- T48 − T0 (change in turbidity) [1, 4]: 2
- T72 − T0 (change in turbidity) [1, 4]: 7
- T96 − T0 (change in turbidity) [1, 4]: 1
- T18 (turbidity of yeast suspension) [1, 5]: 244
- T48 (turbidity of yeast suspension) [1, 5]: 233
- T72 (turbidity of yeast suspension) [1, 5]: 238
- T96 (turbidity of yeast suspension) [1, 5]: 232
- T0 (turbidity of yeast suspension) [1, 5]: 231

Molecule: O=C([O-])CC(O)(CC(=O)[O-])C(=O)[O-].[Ag+].[Ag+].[Ag+] [Example 1, silver citrate]
- Turbidity (NTU) Time 1 Hr ([1]; Table 1, 1 hour at 30° C.): 59.6 NTU
- Turbidity (NTU) T 18 hours ([1]; Table 1, 18 hours): 890 NTU
- Turbidity (NTU) T 24 hours ([1]; Table 1, 24 hours): 932 NTU
- Turbidity (NTU) T 96 Hours ([1]; Table 1, 96 hours): 995 NTU
- Turbidity (NTU) Time zero ([1]; Table 1, time zero): 44.5 NTU
- Change in Turbidity from T0 (delta NTU) Time 1 Hr ([1]; Table 1A, 1 hour minus time zero): 15.1 delta NTU
- Change in Turbidity from T0 (delta NTU) T 18 hours ([1]; Table 1A, 18 hours minus time zero): 845.5 delta NTU
- Change in Turbidity from T0 (delta NTU) T 24 hours ([1]; Table 1A, 24 hours minus time zero): 887.5 delta NTU
- Change in Turbidity from T0 (delta NTU) T 96 Hours ([1]; Table 1A, 96 hours minus time zero): 950.5 delta NTU

Molecule: O=C([O-])CC(O)(CC(=O)[O-])C(=O)[O-].O=C([O-])CC(O)(CC(=O)[O-])C(=O)[O-].[Zn+2].[Zn+2].[Zn+2] [Example 7, zinc citrate]
- Change in Turbidity from T0 (delta NTU) T 96 Hours [1]: 1007.2 delta NTU
- Change in Turbidity from T0 (delta NTU) T 18 hours [1]: 948.2 delta NTU
- Change in Turbidity from T0 (delta NTU) T 24 hours [1]: 949.2 delta NTU
- Change in Turbidity from T0 (delta NTU) Time 1 Hr [1]: 20.7 delta NTU
- Turbidity (NTU) T 96 Hours [1]: 1051 NTU
- Turbidity (NTU) T 18 hours [1]: 992 NTU
- Turbidity (NTU) T 24 hours [1]: 993 NTU
- Turbidity (NTU) Time 1 Hr [1]: 64.5 NTU
- Turbidity (NTU) Time zero [1]: 43.8 NTU

Molecule: CCCCCCCCCCCCOS(=O)(=O)[O-].[Na+] [Example 45]
- Turbidity (NTU) OD (To) ([1]; time zero, sulfate): 43 NTU
- Turbidity (NTU) OD (T1 hr) ([1]; sulfate): 47 NTU
- Turbidity (NTU) OD (T18) ([1]; 18 hours, sulfate): 675 NTU
- Turbidity (NTU) OD (T24) ([1]; 24 hours, sulfate): 728 NTU
- Turbidity (NTU) OD (T48) ([1]; sulfate): 758 NTU
- Change in Turbidity from T0 (delta NTU) OD (T1 hr) [1, 6]: 4 delta NTU
- Change in Turbidity from T0 (delta NTU) OD (T18) [1, 7]: 632 delta NTU
- Change in Turbidity from T0 (delta NTU) OD (T24) [1, 8]: 685 delta NTU
- Change in Turbidity from T0 (delta NTU) OD (T48) ([1]; sulfate): 715 delta NTU

Molecule: CCCCCCCCCCCCOS(=O)(=O)[O-].[Na+] [Example 46]
- Turbidity (NTU) OD (To) ([1]; time zero, sulfate): 37 NTU
- Turbidity (NTU) OD (T1 hr) ([1]; sulfate): 42 NTU
- Turbidity (NTU) OD (T18) ([1]; 18 hours, sulfate): 495 NTU
- Turbidity (NTU) OD (T24) ([1]; 24 hours, sulfate): 610 NTU
- Turbidity (NTU) OD (T48) ([1]; sulfate): 605 NTU
- Change in Turbidity from T0 (delta NTU) OD (T1 hr) [1, 6]: 5 delta NTU
- Change in Turbidity from T0 (delta NTU) OD (T18) [1, 7]: 458 delta NTU
- Change in Turbidity from T0 (delta NTU) OD (T24) [1, 8]: 573 delta NTU
- Change in Turbidity from T0 (delta NTU) OD (T48) ([1]; sulfate): 568 delta NTU

Molecule: O=C(O)CC(O)(CC(=O)O)C(=O)O [Example 49, citric acid]
- Turbidity (NTU) OD (To) ([1]; time zero): 42 NTU
- Turbidity (NTU) OD (T1 hr) [1]: 46 NTU
- Turbidity (NTU) OD (T18) ([1]; 18 hours): 835 NTU
- Turbidity (NTU) OD (T24) ([1]; 24 hours): 920 NTU
- Turbidity (NTU) OD (T48) [1]: 878 NTU
- Change in Turbidity from T0 (delta NTU) OD (T1 hr) ([1]; 1 hour minus time zero): 4 delta NTU
- Change in Turbidity from T0 (delta NTU) OD (T18) ([1]; 18 hours minus time zero): 793 delta NTU
- Change in Turbidity from T0 (delta NTU) OD (T24) ([1]; 24 hours minus time zero): 878 delta NTU
- Change in Turbidity from T0 (delta NTU) OD (T48) [1]: 836 delta NTU

Molecule: O=C(O)CC(O)(CC(=O)O)C(=O)O [Example 50, citric acid]
- Turbidity (NTU) OD (To) ([1]; time zero): 38 NTU
- Turbidity (NTU) OD (T1 hr) [1]: 44 NTU
- Turbidity (NTU) OD (T18) ([1]; 18 hours): 780 NTU
- Turbidity (NTU) OD (T24) ([1]; 24 hours): 864 NTU
- Turbidity (NTU) OD (T48) [1]: 852 NTU
- Change in Turbidity from T0 (delta NTU) OD (T1 hr) ([1]; 1 hour minus time zero): 6 delta NTU
- Change in Turbidity from T0 (delta NTU) OD (T18) ([1]; 18 hours minus time zero): 742 delta NTU
- Change in Turbidity from T0 (delta NTU) OD (T24) ([1]; 24 hours minus time zero): 826 delta NTU
- Change in Turbidity from T0 (delta NTU) OD (T48) [1]: 814 delta NTU

Molecule: [Cu+2].[OH-].[OH-] [copper hydroxide]
- shoot blight incidence, in words (E. amylovora 153N): greatly reduced
- canker, in words (E. amylovora 153N): appeared to prevent canker

Molecule: [H]/N=C(/N)N[C@H]1[C@H](O)[C@@H](O)[C@H](O[C@@H]2O[C@@H](C)[C@](O)(C=O)[C@H]2O[C@@H]2O[C@@H](CO)[C@H](O)[C@@H](O)[C@@H]2NC)[C@@H](N/C(N)=N\[H])[C@@H]1O [streptomycin]
- shoot blight incidence, in words (E. amylovora 153N): greatly reduced
- canker, in words (E. amylovora 153N): appeared to prevent canker

Molecule: copper citrate [Example 13]
- Change in Turbidity from T0 (delta NTU) T 96 Hours [1]: 1054.4 delta NTU
- Change in Turbidity from T0 (delta NTU) T 18 hours [1]: 894.4 delta NTU
- Change in Turbidity from T0 (delta NTU) T 24 hours [1]: 975.4 delta NTU
- Change in Turbidity from T0 (delta NTU) Time 1 Hr [1]: 22.4 delta NTU
- Turbidity (NTU) T 96 Hours [1]: 1100 NTU
- Turbidity (NTU) T 18 hours [1]: 940 NTU
- Turbidity (NTU) T 24 hours [1]: 1021 NTU
- Turbidity (NTU) Time 1 Hr [1]: 68 NTU
- Turbidity (NTU) Time zero [1]: 45.6 NTU
